{"source": "paper PMC10138721", "about": "“Investigation of the Compatibility between Warheads and Peptidomimetic Sequences of Protease Inhibitors—A Comprehensive Reactivity and Selectivity Study” (International Journal of Molecular Sciences, 2023)", "key": {"[1]": {"target": "T1, human cathepsin S (CatS) (Homo sapiens, UniProt P25774)", "T1 construct": "purchased Sigma Aldrich", "T1 sequence (P25774 115-331)": "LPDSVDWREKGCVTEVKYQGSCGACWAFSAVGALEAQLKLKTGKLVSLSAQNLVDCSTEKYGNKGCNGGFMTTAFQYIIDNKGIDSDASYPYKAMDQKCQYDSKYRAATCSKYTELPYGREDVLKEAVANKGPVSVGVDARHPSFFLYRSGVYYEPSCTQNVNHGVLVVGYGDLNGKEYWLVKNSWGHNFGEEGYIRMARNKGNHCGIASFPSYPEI", "experiment": "Fluorometric inhibition assay, cathepsin S", "format": "biochemical", "details": "for kinact: read-out: kinact, CatS"}, "[2]": {"target": "rhodesain (Trypanosoma brucei rhodesiense, UniProt Q95PM0)", "sequence (Q95PM0 entry or part of it)": "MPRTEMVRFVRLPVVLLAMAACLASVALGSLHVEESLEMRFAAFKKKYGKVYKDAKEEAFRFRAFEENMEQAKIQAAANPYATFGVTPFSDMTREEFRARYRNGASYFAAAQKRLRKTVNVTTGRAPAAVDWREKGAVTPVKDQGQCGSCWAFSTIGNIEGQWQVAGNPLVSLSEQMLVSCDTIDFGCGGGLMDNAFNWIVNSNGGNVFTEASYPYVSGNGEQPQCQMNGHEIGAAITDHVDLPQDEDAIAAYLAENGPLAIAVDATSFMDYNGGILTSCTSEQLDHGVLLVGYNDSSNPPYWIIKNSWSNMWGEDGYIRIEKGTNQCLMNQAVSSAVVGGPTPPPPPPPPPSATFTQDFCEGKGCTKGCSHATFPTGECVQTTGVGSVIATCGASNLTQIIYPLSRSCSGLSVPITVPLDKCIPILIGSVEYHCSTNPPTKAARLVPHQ", "experiment": "Fluorometric inhibition assay, rhodesain", "format": "biochemical", "details": "for kinact: read-out: kinact, Rhodesain"}, "[3]": {"target": "SARS-CoV-2 main protease (M^pro) (Severe acute respiratory syndrome coronavirus 2, UniProt P0DTD1)", "experiment": "Fluorometric (FRET) inhibition assay, SARS-CoV-2 M^pro", "format": "biochemical", "details": "for activity against M^pro, in words: initial screen at 20 µM, cut-off 80% inhibition"}, "[4]": {"experiment": "Reactivity test of warhead probes with PhEtSH + Et3N (NMR/LC-MS)", "format": "physicochemical", "details": "for reactivity with PhEtSH + Et3N (deprotonated thiol), in words: DMSO-d6, up to 240 min", "description": "(§1) To investigate the reactivity between the different warheads towards the three classes of proteases (serine, threonine and cysteine proteases), their behavior in model systems under the same reaction conditions (solvent, nucleophile and base) using either NMR or LC-MS analysis was investigated. We used reactivity probes with a Boc-L-Leu-(warhead) sequence. Leucin was chosen as a P1 amino acid to minimize influences of the side chain and due to synthetic accessibility. 2-Phenylethanethiol was used as a model nucleophile to mimic the thiol moiety of cysteine proteases, and sodium ethoxide was used as a serine/threonine replacement. DMSO-d6 was used as solvent. Under these conditions, the nucleophile is deprotonated, simulating the activated serine or threonine in the catalytic triad of serine and threonine proteases, while ethanol as protonated alcohol species turned out to be unreactive in preliminary test reactions. The reactivity tests using 2-phenylethanthiol were carried out in the presence and absence of triethylamine as a base. This allowed for a reactivity comparison of the warheads towards protonated and deprotonated nucleophilic thiol species. Generating a deprotonated thiol species in the presence of triethylamine simulates the deprotonated cysteine in the catalytic dyad of cysteine proteases. Scheme 8 illustrates the reaction of the reactivity assay with both model nucleophiles and the vinyl sulfone moiety 109 as an example.\n(§2) The reactivity tests of all Michael acceptors, 109, 110, 111 and 112, the α-ketobenzothiazole 115 and nitrile 117 were investigated using an NMR-based analysis method, while the β-lactam 108 reactivity was investigated via LC-MS, due to its lack of proton signals, which could be used for evaluation of the reactivity in the ^1H-NMR studies, and the irreversible reaction mechanism, which allowed the LC-MS analysis. […] Formation of the expected adducts with the nitrile 117 (PhEtSH/PhEtS^–/EtONa), the α-ketobenzothiazole 115 (PhEtSH/PhEtS^–) and the nitroalkene 111 (EtONa) could not be observed. This may have been due to the covalent reversible reaction mechanism of the nitrile and α-ketobenzothiazole and the overall difficult ionization of the specific compounds by an electron spray ionization mass spectrometer.\n(§3) Method A (NMR): ^1H-NMR spectra were recorded for the respective warhead and nucleophile mixture, before the addition of the nucleophile (0 min) and after 5, 30, 60, 120 and 240 min reaction time. For quantification, the double bond-signals (doublet/doublet of doublets, around 7.4–6.7 ppm) of the Michael acceptors were integrated relative to 1,3-dioxolane as an internal standard. The acetal CH2 signal of the internal standard at 5.3 ppm was used as a reference.\n(§4) The α-ketobenzothiazole 115 and nitrile 117 were similarly analyzed by ^13C-NMR. Therefore, the corresponding ^13C-leucin derivates were synthesized (Scheme 7). Quantifications of the reactions were carried out by using the integral of the carbonyl carbon atom signal at 195 ppm for the α-ketobenzothiazole and 120 ppm for the nitrile moiety. The reference signal of DMSO-d6 was set to 39.52 ppm.\n(§5) Method B (LC-MS): The reactivity of the β-lactam test compound 108 with the nucleophiles was investigated using an LC-MS-based method. To quantify the conversion, the AUCs were determined at 254 nm. In Figure 3, the UV spectra of the test reaction of the β-lactam 108 with EtONa are shown exemplarily.\n(§6) The β-lactam 108 (0.07 mmol, 1eq) was solved in DMSO-d6 (0.5 mL). The reaction was measured in time intervals before (0 min), 5, 30, 60, 120 and 240 mins after the addition of the corresponding nucleophile (PhEtSH/EtONa, 2 eq) in presence of Et3N (2 eq) or not. In case of PhEtSH as the nucleophile the reaction got quenched by pouring 10 µL of the reaction mixture into a solution of 25 mM TRIS (pH 7.00) and 27 mM maleimide in a 1:1 mixture of acetonitrile/H2O (990 µL). For the reaction with EtONa as the nucleophile, the reaction solution […]"}, "[5]": {"experiment": "Reactivity test of warhead probes with PhEtSH without base (NMR/LC-MS)", "format": "physicochemical", "details": "non-basic conditions; for reactivity with PhEtSH (protonated thiol), in words: DMSO-d6, up to 240 min", "description": "as §1, §2, §3, §4, §5, §6"}, "[6]": {"experiment": "Reactivity test of warhead probes with EtONa (NMR/LC-MS)", "format": "physicochemical", "details": "for reactivity with EtONa, in words: DMSO-d6, up to 240 min", "description": "as §1, §2, §3, §4, §5, §6"}, "[7]": {"details": "Table S1; a) calculated from IC50 with Cheng–Prusoff, irreversible inhibitors from kobs fits, n.a. = not active at 20 µM, read-out: Ki, Rhodesain"}, "[8]": {"details": "Table S1, irreversible inhibitors"}, "[9]": {"details": "Table S1; a) calculated from IC50 with Cheng–Prusoff, irreversible inhibitors from kobs fits, n.a. = not active at 20 µM, * unstable towards DTT, read-out: Ki, CatS"}}, "note": "“Also recorded” adds a separate entry of the source. Like-named read-outs stand apart in the source and are kept apart here."}
{"compound": "CC(C)C[C@@H](/C=C/S(=O)(=O)c1ccccc1)NC(=O)[C@H](Cc1ccccc1)NC(=O)c1cnccn1", "note": "[compound 58]", "values": [{"measurement": "Ki", "setting": "[1]; Ki, CatS", "value": "126 ± 71", "unit": "nM"}, {"measurement": "kinact", "setting": "[1]", "value": "0.013 ± 0.002", "unit": "s⁻¹"}, {"measurement": "Ki", "setting": "[2]; Ki, Rhodesain", "value": "331 ± 41", "unit": "nM"}, {"measurement": "kinact", "setting": "[2]", "value": "0.019 ± 0.001", "unit": "s⁻¹"}]}
{"compound": "CCOC(=O)/C=C/C(=O)[C@H](C[C@@H]1CCNC1=O)NC(=O)[C@H](CC(C)C)NC(=O)c1cc2c(OC)cccc2[nH]1", "note": "[compound 81]", "values": [{"measurement": "activity against CatS, in words", "setting": "[1]; initial screen at 20 µM, cut-off 80% inhibition", "value": "essentially inactive"}, {"measurement": "Ki", "setting": "[2]; [7]", "value": "99 ± 24", "unit": "nM"}, {"measurement": "kinact", "setting": "[2]; [8]", "value": "0.006 ± 0.0009", "unit": "s⁻¹"}]}
{"compound": "COc1cccc2[nH]c(C(=O)N[C@@H](CC(C)C)C(=O)N[C@H](C#N)C[C@@H]3CCNC3=O)cc12", "note": "[compound 84]", "values": [{"measurement": "activity against M^pro, in words", "setting": "[3]", "value": "displayed inhibitory activity"}, {"measurement": "Ki", "setting": "[1]; [9]", "value": "104 ± 9", "unit": "nM"}, {"measurement": "Ki", "setting": "[2]; [7]", "value": "42 ± 5", "unit": "nM"}]}
{"compound": "COc1cccc2[nH]c(C(=O)N[C@@H](CC(C)C)C(=O)N[C@H](/C=C/[N+](=O)[O-])C[C@@H]3CCNC3=O)cc12", "note": "[compound 88]", "values": [{"measurement": "Ki", "setting": "[3]", "value": "2200 ± 184", "unit": "nM"}, {"measurement": "activity against M^pro, in words", "setting": "[3]", "value": "displayed inhibitory activity"}, {"measurement": "Ki", "setting": "[1]; [9]", "value": "388 ± 277", "unit": "nM"}, {"measurement": "Ki", "setting": "[2]; calculated from Ki, –log10(Ki/M), read-out: pKi, Rhodesain inhibition (converted)", "value": 2, "unit": "nM"}]}
{"compound": "COc1cccc2[nH]c(C(=O)N[C@@H](CC(C)C)C(=O)N[C@@H](C[C@@H]3CCNC3=O)C(=O)c3nc4ccccc4s3)cc12", "note": "[compound 90]", "values": [{"measurement": "activity against M^pro, in words", "setting": "[3]", "value": "displayed inhibitory activity"}]}
{"compound": "COc1cccc2[nH]c(C(=O)N[C@@H](CC(C)C)C(=O)N[C@H](/C=C/S(=O)(=O)c3ccccc3)C[C@@H]3CCNC3=O)cc12", "note": "[compound 93]", "values": [{"measurement": "Ki", "setting": "[3]", "value": "3530 ± 1110", "unit": "nM"}, {"measurement": "activity against M^pro, in words", "setting": "[3]", "value": "displayed inhibitory activity"}, {"measurement": "kinact", "setting": "[3]; read-out: kinact, MPro", "value": "0.0137 ± 0.0061", "unit": "s⁻¹"}, {"measurement": "Ki", "setting": "[1]; [9]", "value": "330 ± 65", "unit": "nM"}, {"measurement": "kinact", "setting": "[1]; [8]", "value": "0.0087 ± 0.0001", "unit": "s⁻¹"}, {"measurement": "Ki", "setting": "[1]; calculated from Ki, –log10(Ki/M), read-out: pKi, Cathepsin S inhibition (converted)", "value": 398, "unit": "nM"}, {"measurement": "Ki", "setting": "[2]; [7]", "value": "2000 ± 604", "unit": "nM"}, {"measurement": "kinact", "setting": "[2]; [8]", "value": "0.029 ± 0.008", "unit": "s⁻¹"}]}
{"compound": "COc1cccc2[nH]c(C(=O)N[C@@H](CC(C)C)C(=O)N[C@H](/C=C(\\F)S(=O)(=O)c3ccccc3)C[C@@H]3CCNC3=O)cc12", "note": "[compound 94]", "values": [{"measurement": "Ki", "setting": "[3]", "value": "517 ± 33", "unit": "nM"}, {"measurement": "activity against M^pro, in words", "setting": "[3]", "value": "displayed inhibitory activity"}, {"measurement": "Ki", "setting": "[1]; [9]", "value": "1350 ± 90", "unit": "nM"}, {"measurement": "Ki", "setting": "[2]; [7]", "value": "217 ± 31", "unit": "nM"}]}
{"compound": "COc1cccc2[nH]c(C(=O)N[C@@H](CC(C)C)C(=O)N[C@@H](C[C@@H]3CCNC3=O)C(=O)NC3CN(c4ccccc4)C3=O)cc12", "note": "(stereo partly drawn) [compound 96]", "values": [{"measurement": "activity against M^pro, in words", "setting": "[3]", "value": "inactive at 20 µM"}]}
{"compound": "CC(=O)NCC(=O)NC(C(=O)N[C@@H](C)C(=O)N[C@H](/C=C/S(=O)(=O)c1ccccc1)CCCNC(=N)N)[C@H](C)O", "note": "(stereo partly drawn) [compound 106]", "values": [{"measurement": "activity against CatS, in words", "setting": "[1]", "value": "not active at 20 µM"}, {"measurement": "activity against rhodesain, in words", "setting": "[2]", "value": "inactive"}]}
{"compound": "CC(=O)NCC(=O)NC(C(=O)N[C@@H](C)C(=O)N[C@H](/C=C(\\F)S(=O)(=O)c1ccccc1)CCCNC(=N)N)[C@H](C)O", "note": "(stereo partly drawn) [compound 107]", "values": [{"measurement": "activity against CatS, in words", "setting": "[1]", "value": "not active at 20 µM"}, {"measurement": "activity against rhodesain, in words", "setting": "[2]", "value": "inactive"}]}
{"compound": "CC(C)C[C@H](NC(=O)OC(C)(C)C)C(=O)N[C@H]1CN(c2ccccc2)C1=O", "note": "[compound 108]", "values": [{"measurement": "reactivity with PhEtSH + Et3N (deprotonated thiol), in words", "setting": "[4]", "value": "Every warhead except the β-lactam 108 and the nitrile 117 reacted"}, {"measurement": "reactivity with PhEtSH (protonated thiol), in words", "setting": "[5]", "value": "conversion was not observed"}, {"measurement": "time to full conversion with EtONa", "setting": "[6]; DMSO-d6", "value": 60, "unit": "min"}, {"measurement": "reactivity with EtONa, in words", "setting": "[6]", "value": "complete conversion; also recorded: strong reactivity"}]}
{"compound": "CC(C)CC(/C=C/S(=O)(=O)c1ccccc1)NC(=O)OC(C)(C)C", "note": "(stereo not drawn) [compound 109]", "values": [{"measurement": "time to full conversion with PhEtSH + Et3N", "setting": "[4]; DMSO-d6", "value": 60, "unit": "min"}, {"measurement": "reactivity with PhEtSH + Et3N (deprotonated thiol), in words", "setting": "[4]", "value": "high reactivity"}, {"measurement": "reactivity with PhEtSH (protonated thiol), in words", "setting": "[5]", "value": "conversion was not observed; also recorded: missing reactivity"}, {"measurement": "conversion with EtONa", "setting": "[6]; DMSO-d6, after 240 min", "value": 70, "unit": "%"}]}
{"compound": "CC(C)CC(/C=C(\\F)S(=O)(=O)c1ccccc1)NC(=O)OC(C)(C)C", "note": "(stereo not drawn) [compound 110]", "values": [{"measurement": "maximum conversion with PhEtSH + Et3N", "setting": "[4]; DMSO-d6, after 240 min", "value": 86, "unit": "%"}, {"measurement": "reactivity with PhEtSH + Et3N (deprotonated thiol), in words", "setting": "[4]", "value": "high reactivity"}, {"measurement": "reactivity with PhEtSH (protonated thiol), in words", "setting": "[5]", "value": "conversion was not observed; also recorded: missing reactivity"}, {"measurement": "reactivity with EtONa, in words", "setting": "[6]", "value": "No conversion"}]}
{"compound": "CC(C)C[C@H](NC(=O)OC(C)(C)C)[13C](N)=O", "note": "[compound 116]", "values": [{"measurement": "time until equilibrium was reached with PhEtSH", "setting": "[5]; DMSO-d6", "value": 5, "unit": "min"}]}
